Experiment: Drug delivery profile: diffusion of loaded drug from foam-film composite to wetted receptor foam piece, HPLC
Format: physicochemical
Settings: 1x1 cm composite loaded with 100 μL of 261.5 mg/mL solution; on wetted 2x2 cm foam piece; 10 minutes, 37° C.
Description: • A foam-film composite made using the process outlined in example 3 was used to evaluate the drug delivery profile of said composite after drug loading. This was done by loading a dry 1×1 cm piece of the composite foam-film with 100 μL of our 261.5 mg/mL solution of dexamethasone disodium phosphate in nanopure water. This piece was then placed on top of a wetted 2×2 cm piece without the flexible film. These two pieces were left in contact for a period of 10 minutes at 37° C. After […] the pieces were separated and the receptor (bottom) piece was placed into a vial. At this point 5 mL of water was added to the vial and the piece was shaken in this new volume of water for 10 minutes. The aqueous layer was then filtered through a 0.45 μm filter and run on a reverse phase HPLC. Using a C18 column and a 12 minute gradient method of water and acetonitrile, it was determined that about 12 mg or about 45% of the loaded DSP diffused to the receptor (bottom) piece.

C[C@@H]1C[C@H]2[C@@H]3CCC4=CC(=O)C=C[C@]4(C)[C@@]3(F)[C@@H](O)C[C@]2(C)[C@@]1(O)C(=O)COP(=O)([O-])[O-].[Na+].[Na+] [DSP, dexamethasone disodium phosphate]
amount of DSP diffused to the receptor (bottom) piece: about 12 mg
percent of the loaded DSP diffused to the receptor (bottom) piece: about 45%

— patent US9028860B2, “Partially microcellular, selectively hydrophilic composite construct for ocular drug delivery” (Poly-Med, Inc., priority 2010, dated 2015)
